What follows are sequences tested against T1, TLR8 (Homo sapiens, UniProt Q9NR97) (assay: HEK-TLR8 NF-κB-luciferase reporter, R848 or Motolimod stimulation (potentiation or inhibition)). Conditions: ASO 100 nM; relative to R848 only.
T1 sequence (Q9NR97 27-1041): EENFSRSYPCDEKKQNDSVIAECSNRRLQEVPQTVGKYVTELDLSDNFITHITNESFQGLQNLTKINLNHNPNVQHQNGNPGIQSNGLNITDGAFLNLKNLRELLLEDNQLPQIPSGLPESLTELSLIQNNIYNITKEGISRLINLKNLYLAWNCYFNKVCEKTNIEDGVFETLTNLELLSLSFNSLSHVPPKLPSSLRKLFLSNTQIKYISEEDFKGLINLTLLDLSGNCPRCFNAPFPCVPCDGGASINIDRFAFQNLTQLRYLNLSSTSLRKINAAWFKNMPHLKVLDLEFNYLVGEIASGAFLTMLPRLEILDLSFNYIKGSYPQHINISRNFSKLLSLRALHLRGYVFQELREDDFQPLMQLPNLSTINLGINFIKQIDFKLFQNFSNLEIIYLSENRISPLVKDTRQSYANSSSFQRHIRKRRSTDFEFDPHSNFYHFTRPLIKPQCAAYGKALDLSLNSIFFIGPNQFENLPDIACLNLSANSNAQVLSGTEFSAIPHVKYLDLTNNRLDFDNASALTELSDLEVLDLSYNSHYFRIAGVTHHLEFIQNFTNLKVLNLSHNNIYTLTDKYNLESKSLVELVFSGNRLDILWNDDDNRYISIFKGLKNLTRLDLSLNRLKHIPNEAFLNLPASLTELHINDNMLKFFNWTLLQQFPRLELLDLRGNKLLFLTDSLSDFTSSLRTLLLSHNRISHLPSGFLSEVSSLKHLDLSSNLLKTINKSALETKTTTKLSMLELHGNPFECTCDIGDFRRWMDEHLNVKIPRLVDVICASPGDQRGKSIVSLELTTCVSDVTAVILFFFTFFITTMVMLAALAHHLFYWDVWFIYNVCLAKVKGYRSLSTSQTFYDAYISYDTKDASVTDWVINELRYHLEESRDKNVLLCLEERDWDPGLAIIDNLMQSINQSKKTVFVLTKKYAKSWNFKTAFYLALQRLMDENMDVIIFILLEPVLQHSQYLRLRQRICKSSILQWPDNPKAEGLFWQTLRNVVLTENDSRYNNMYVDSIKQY
Format: cell-based
Design: expressed in transfected cells; host or cells: 293XLhTLR8 (HEK293)

Sequence | TLR8 100 nM (averaged NF-κB-Luciferase level relative to R848 condition, fold increase)
CTTCGTGGGGTCCTTT (antisense; LNA-modified, pattern not given here) [HPRT LNA-662 V1] | 1.097
CTTGAAGCATCGTATC (antisense; LNA-modified, pattern not given here) [CTNN2B-3648 LNA KL] | 0.960
CTTGGCTTCGTGGAGC (antisense; LNA-modified, pattern not given here) [MB21D1-520 LNA V1] | 0.458
GAAAGGTTATGCAAGG (antisense; LNA-modified, pattern not given here) [CTNN2B-916 LNA KL] | 1.156
GACTATACGCGCAATA (antisense; LNA-modified, pattern not given here) [NC5 LNA PS 3-10-3] | 0.777
GAGGTCTTGGCTTCGT (antisense; LNA-modified, pattern not given here) [MB21D1-525 LNA V1] | 0.574
GATGGCCTCCCATCTC (antisense; LNA-modified, pattern not given here) [HPRT LNA-331 V1] | 0.278
GCACACTTCGTACCCA (antisense; LNA-modified, pattern not given here) [CAMSAP1-4915 LNA V1] | 0.319
GCACTTCAGTCTGAGC (antisense; LNA-modified, pattern not given here) [MB21D1-719 LNA KL] | 0.495
GGAGGTCTTGGCTTCG (antisense; LNA-modified, pattern not given here) [MB21D1-526 LNA V1] | 0.575
GGCACTTTGCCTCCTT (antisense; LNA-modified, pattern not given here) [EGFR-2859 LNA V1] | 0.652
GGCTCGGCTTGCCTAC (antisense; LNA-modified, pattern not given here) [CAMSAP1-5594 LNA V1] | 0.374
GGTCATTACAATAGCT (antisense; LNA-modified, pattern not given here) [HPRT LNA-475 KL] | 0.500
GGTCTTGGCTTCGTGG (antisense; LNA-modified, pattern not given here) [MB21D1-523 LNA V1] | 0.616
GTCAAGGGCATATCCT (antisense; LNA-modified, pattern not given here) [HPRT LNA-732 KL] | 0.543
GTCCTTGCACGTGGCT (antisense; LNA-modified, pattern not given here) [EGFR-1015 LNA V1] | 0.570
GTCTCTGGAGCTTCCT (antisense; LNA-modified, pattern not given here) [CAMSAP1-2456 LNA V1] | 0.764
GTCTTCATCGGCCCTG (antisense; LNA-modified, pattern not given here) [CAMSAP1-2113 LNA V1] | 0.664
GTGATCTTGACATGCT (antisense; LNA-modified, pattern not given here) [EGFR-2790 LNA KL] | 0.583
GTGATGGCCTCCCATC (antisense; LNA-modified, pattern not given here) [HPRT LNA-333 V1] | 0.517
TACTTTCCGAGGTGTC (antisense; LNA-modified, pattern not given here) [CAMSAP1-1739 LNA KL] | 0.417
TCCACAATCAAGACAT (antisense; LNA-modified, pattern not given here) [HPRT LNA-551 KL] | 0.474
TCCATACCCAAGGCAT (antisense; LNA-modified, pattern not given here) [CTNN2B-2446 LNA V1] | 0.595
TCCGCCCAAAGGGAAC (antisense; LNA-modified, pattern not given here) [HPRT LNA-1027 KL] | 0.541
TCCTTGCACGTGGCTT (antisense; LNA-modified, pattern not given here) [EGFR-1014 LNA V1] | 0.491
TCGTGGGGTCCTTTTC (antisense; LNA-modified, pattern not given here) [HPRT LNA-660 V1] | 0.778
TCTTCATCGGCCCTGC (antisense; LNA-modified, pattern not given here) [CAMSAP1-2112 LNA V1] | 0.595
TCTTGGCTTCGTGGAG (antisense; LNA-modified, pattern not given here) [MB21D1-521 LNA V1] | 0.541
TGACAAAGATTCACTG (antisense; LNA-modified, pattern not given here) [HPRT LNA-1353 KL] | 0.633
TGACTGTCTTGAGGGT (antisense; LNA-modified, pattern not given here) [MB21D1-1483 LNA KL] | 0.973

Same assay, conditions: ASO 500 nM; relative to R848 only

Sequence | TLR8 500 nM (averaged NF-κB-Luciferase level relative to R848 condition, fold increase)
CTTCGTGGGGTCCTTT (antisense; LNA-modified, pattern not given here) [HPRT LNA-662 V1] | 4.366
CTTGAAGCATCGTATC (antisense; LNA-modified, pattern not given here) [CTNN2B-3648 LNA KL] | 3.889
CTTGGCTTCGTGGAGC (antisense; LNA-modified, pattern not given here) [MB21D1-520 LNA V1] | 0.594
GAAAGGTTATGCAAGG (antisense; LNA-modified, pattern not given here) [CTNN2B-916 LNA KL] | 4.110
GACTATACGCGCAATA (antisense; LNA-modified, pattern not given here) [NC5 LNA PS 3-10-3] | 3.376
GAGGTCTTGGCTTCGT (antisense; LNA-modified, pattern not given here) [MB21D1-525 LNA V1] | 0.642
GATGGCCTCCCATCTC (antisense; LNA-modified, pattern not given here) [HPRT LNA-331 V1] | 0.186
GCACACTTCGTACCCA (antisense; LNA-modified, pattern not given here) [CAMSAP1-4915 LNA V1] | 1.091
GCACTTCAGTCTGAGC (antisense; LNA-modified, pattern not given here) [MB21D1-719 LNA KL] | 0.864
GGAGGTCTTGGCTTCG (antisense; LNA-modified, pattern not given here) [MB21D1-526 LNA V1] | 0.882
GGCACTTTGCCTCCTT (antisense; LNA-modified, pattern not given here) [EGFR-2859 LNA V1] | 0.862
GGCTCGGCTTGCCTAC (antisense; LNA-modified, pattern not given here) [CAMSAP1-5594 LNA V1] | 0.706
GGTCATTACAATAGCT (antisense; LNA-modified, pattern not given here) [HPRT LNA-475 KL] | 1.381
GGTCTTGGCTTCGTGG (antisense; LNA-modified, pattern not given here) [MB21D1-523 LNA V1] | 1.386
GTCAAGGGCATATCCT (antisense; LNA-modified, pattern not given here) [HPRT LNA-732 KL] | 2.301
GTCCTTGCACGTGGCT (antisense; LNA-modified, pattern not given here) [EGFR-1015 LNA V1] | 0.936
GTCTCTGGAGCTTCCT (antisense; LNA-modified, pattern not given here) [CAMSAP1-2456 LNA V1] | 2.402
GTCTTCATCGGCCCTG (antisense; LNA-modified, pattern not given here) [CAMSAP1-2113 LNA V1] | 2.086
GTGATCTTGACATGCT (antisense; LNA-modified, pattern not given here) [EGFR-2790 LNA KL] | 1.806
GTGATGGCCTCCCATC (antisense; LNA-modified, pattern not given here) [HPRT LNA-333 V1] | 1.112
TACTTTCCGAGGTGTC (antisense; LNA-modified, pattern not given here) [CAMSAP1-1739 LNA KL] | 1.585
TCCACAATCAAGACAT (antisense; LNA-modified, pattern not given here) [HPRT LNA-551 KL] | 0.893
TCCATACCCAAGGCAT (antisense; LNA-modified, pattern not given here) [CTNN2B-2446 LNA V1] | 1.334
TCCGCCCAAAGGGAAC (antisense; LNA-modified, pattern not given here) [HPRT LNA-1027 KL] | 0.725
TCCTTGCACGTGGCTT (antisense; LNA-modified, pattern not given here) [EGFR-1014 LNA V1] | 0.601
TCGTGGGGTCCTTTTC (antisense; LNA-modified, pattern not given here) [HPRT LNA-660 V1] | 2.966
TCTTCATCGGCCCTGC (antisense; LNA-modified, pattern not given here) [CAMSAP1-2112 LNA V1] | 1.393
TCTTGGCTTCGTGGAG (antisense; LNA-modified, pattern not given here) [MB21D1-521 LNA V1] | 0.197
TGACAAAGATTCACTG (antisense; LNA-modified, pattern not given here) [HPRT LNA-1353 KL] | 1.756
TGACTGTCTTGAGGGT (antisense; LNA-modified, pattern not given here) [MB21D1-1483 LNA KL] | 3.210

Reference: patent publication US20240384268A1, “Oligonucleotides” (Hudson Institute of Medical Research, priority 2021, published 2024)
